Article PMC5478271, “Chemical structure-guided design of dynapyrazoles, cell-permeable dynein inhibitors with a unique mode of action” (eLife, 2017)

Molecular target: T1, human cytoplasmic dynein 2 (GFP-dynein 2, amino acids 1091–4307) (Homo sapiens, UniProt Q8NCM8)
T1 construct: (AA 1091–4307, uniprot: Q8NCM8); protein A tag (followed by TEV-cleavable linker) (N, cleaved yes); made in house; host or cells: Sf9 insect cells (baculovirus)
Assay: Microtubule gliding (motility) assay with GFP-dynein 2
Type: biochemical
Conditions: for Velocity of dynein-2-driven microtubule gliding: 20 µM compound, solvent control 128 ± 14 nm/s, mean ± S.D.; for Velocity of dynein-2-driven microtubule gliding / IC50: 1 mM MgATP, 0.05 mg/mL casein, 2% DMSO; for IC50: read-out: IC50, inhibition of GFP-dynein-2-driven motility
Experimental: We purified an N-terminally GFP-tagged motor-domain construct of dynein 2 using an insect cell expression system ([Schmidt et al., 2015]). The GFP tag in this construct (GFP-dynein 2, amino acids 1091–4307) allowed the motor protein to be immobilized on passivated glass coverslips used in microtubule gliding assays. GFP-dynein 2 was obtained as a mono-disperse peak by gel filtration (Figure 2D and E). In the presence of ATP (1 mM), this protein moved microtubules with a velocity of 128 ± 14 nm/s (mean ± SD, Figure 2G and I).
Reaction setup: A coverslip-based motility assay was adapted from similar assays reported previously ([Firestone et al., 2012]; [Schmidt et al., 2015]). A flow chamber assembled on a pre-cleaned microscope coverslide (3–5 µL chamber volume) was hydrated with buffer A (25 mM PIPES, 30 mM KCl, 5 mM MgCl2, 1 mM EGTA, 0.01% Triton X-100, 1 mM DTT, 20 µM taxol, pH 7.0 with KOH). Anti-GFP antibody (0.4 mg/mL, affinity purified rabbit antibody) was flowed into the chamber and allowed to adhere non-specifically to the glass for 20 s. The surface was blocked using 0.5 mg/mL α-casein in buffer A. Excess protein was then washed away with buffer A. GFP-dynein motor domain was diluted in buffer A supplemented with 1 mM DTT and 0.1 mM ATP (2 mM DTT final; GFP-dynein 2 diluted to: 180 nM; GFP-dynein 1 diluted to: 60 nM), flowed into the chamber and allowed to bind for 20 s. Excess protein was washed away with buffer A. Reaction mix (25 mM PIPES, 90 mM KCl, 6 mM MgCl2, 1 mM EGTA, 0.01% Triton X-100, 3 mM DTT, 20 µM taxol, 1 mM ATP, 1x oxygen scavenging system components [4.5 mg/mL glucose, 35 µg/mL catalase, 200 µg/mL glucose oxidase], 2% final DMSO [v/v] with compounds at appropriate concentrations, 0.05 mg/mL α-casein, microtubules [rhodamine labeled, purified from bovine brain, GMP-CPP and Taxol-stabilized], pH 7.0 with KOH) was flowed into the chamber using ~4 chamber volumes. For experiments shown in Figure 4—figure supplement 1, α-casein concentration in reaction mix was 0.5 mg/mL and all other parameters were held constant.
For reversibility experiments, motility in the presence of 5 µM 8 was observed as above, and upon completion of imaging, the chamber, fresh buffer A supplemented with 1 mM ATP was flowed into the chamber and incubated for 1 min; this wash and incubation cycle was repeated twice. Reaction mix containing DMSO (no compound) was flowed into the chamber using ~4 chamber volumes. The chamber was sealed with valap and returned to the microscope.
Microscopy conditions: Following addition of reaction mix, microtubules were allowed to bind for 5 min before imaging. For reversibility experiments, microtubules were allowed to bind for 10 min before imaging. Videos were taken on a Zeiss Axiovert 200M wide-field microscope equipped with a Zeiss 100x/1.45 NA α-Plan-Fluar objective. Data were captured with an EM-CCD camera (iXon DU-897, Andor Technology) with a 0.2 s exposure time and frame rate of 0.25–0.5/second. Four 10–20 s videos were captured per experimental condition. Velocities were measured using the kymograph tool in FIJI ([Schindelin et al., 2012]). Data analysis is discussed below under ‘General data analysis procedures.’
Microtubule velocity measurements: the tracks of microtubules were traced and converted to kymographs (x axis-displacement, y axis-time) using the kymograph function of FIJI (RRID: SCR_002285). The angle formed between an edge of a microtubule and the horizontal was measured. This angle, θ, was converted into velocity using the following relationship: velocity = 1/|tangent(θ)| * (unit pixel distance)/(time interval between frames).
The calibrated pixel distance was 0.152 µm and the time interval between frames was either 2 or 4 s. The velocities of at least seven microtubules were measured per field of view, if sufficient tracks could be found. In cases where fewer than seven microtubules were found in a field of view, velocities of all microtubules on the coverslip were measured. […]

T1 sequence (Q8NCM8 1091-4307): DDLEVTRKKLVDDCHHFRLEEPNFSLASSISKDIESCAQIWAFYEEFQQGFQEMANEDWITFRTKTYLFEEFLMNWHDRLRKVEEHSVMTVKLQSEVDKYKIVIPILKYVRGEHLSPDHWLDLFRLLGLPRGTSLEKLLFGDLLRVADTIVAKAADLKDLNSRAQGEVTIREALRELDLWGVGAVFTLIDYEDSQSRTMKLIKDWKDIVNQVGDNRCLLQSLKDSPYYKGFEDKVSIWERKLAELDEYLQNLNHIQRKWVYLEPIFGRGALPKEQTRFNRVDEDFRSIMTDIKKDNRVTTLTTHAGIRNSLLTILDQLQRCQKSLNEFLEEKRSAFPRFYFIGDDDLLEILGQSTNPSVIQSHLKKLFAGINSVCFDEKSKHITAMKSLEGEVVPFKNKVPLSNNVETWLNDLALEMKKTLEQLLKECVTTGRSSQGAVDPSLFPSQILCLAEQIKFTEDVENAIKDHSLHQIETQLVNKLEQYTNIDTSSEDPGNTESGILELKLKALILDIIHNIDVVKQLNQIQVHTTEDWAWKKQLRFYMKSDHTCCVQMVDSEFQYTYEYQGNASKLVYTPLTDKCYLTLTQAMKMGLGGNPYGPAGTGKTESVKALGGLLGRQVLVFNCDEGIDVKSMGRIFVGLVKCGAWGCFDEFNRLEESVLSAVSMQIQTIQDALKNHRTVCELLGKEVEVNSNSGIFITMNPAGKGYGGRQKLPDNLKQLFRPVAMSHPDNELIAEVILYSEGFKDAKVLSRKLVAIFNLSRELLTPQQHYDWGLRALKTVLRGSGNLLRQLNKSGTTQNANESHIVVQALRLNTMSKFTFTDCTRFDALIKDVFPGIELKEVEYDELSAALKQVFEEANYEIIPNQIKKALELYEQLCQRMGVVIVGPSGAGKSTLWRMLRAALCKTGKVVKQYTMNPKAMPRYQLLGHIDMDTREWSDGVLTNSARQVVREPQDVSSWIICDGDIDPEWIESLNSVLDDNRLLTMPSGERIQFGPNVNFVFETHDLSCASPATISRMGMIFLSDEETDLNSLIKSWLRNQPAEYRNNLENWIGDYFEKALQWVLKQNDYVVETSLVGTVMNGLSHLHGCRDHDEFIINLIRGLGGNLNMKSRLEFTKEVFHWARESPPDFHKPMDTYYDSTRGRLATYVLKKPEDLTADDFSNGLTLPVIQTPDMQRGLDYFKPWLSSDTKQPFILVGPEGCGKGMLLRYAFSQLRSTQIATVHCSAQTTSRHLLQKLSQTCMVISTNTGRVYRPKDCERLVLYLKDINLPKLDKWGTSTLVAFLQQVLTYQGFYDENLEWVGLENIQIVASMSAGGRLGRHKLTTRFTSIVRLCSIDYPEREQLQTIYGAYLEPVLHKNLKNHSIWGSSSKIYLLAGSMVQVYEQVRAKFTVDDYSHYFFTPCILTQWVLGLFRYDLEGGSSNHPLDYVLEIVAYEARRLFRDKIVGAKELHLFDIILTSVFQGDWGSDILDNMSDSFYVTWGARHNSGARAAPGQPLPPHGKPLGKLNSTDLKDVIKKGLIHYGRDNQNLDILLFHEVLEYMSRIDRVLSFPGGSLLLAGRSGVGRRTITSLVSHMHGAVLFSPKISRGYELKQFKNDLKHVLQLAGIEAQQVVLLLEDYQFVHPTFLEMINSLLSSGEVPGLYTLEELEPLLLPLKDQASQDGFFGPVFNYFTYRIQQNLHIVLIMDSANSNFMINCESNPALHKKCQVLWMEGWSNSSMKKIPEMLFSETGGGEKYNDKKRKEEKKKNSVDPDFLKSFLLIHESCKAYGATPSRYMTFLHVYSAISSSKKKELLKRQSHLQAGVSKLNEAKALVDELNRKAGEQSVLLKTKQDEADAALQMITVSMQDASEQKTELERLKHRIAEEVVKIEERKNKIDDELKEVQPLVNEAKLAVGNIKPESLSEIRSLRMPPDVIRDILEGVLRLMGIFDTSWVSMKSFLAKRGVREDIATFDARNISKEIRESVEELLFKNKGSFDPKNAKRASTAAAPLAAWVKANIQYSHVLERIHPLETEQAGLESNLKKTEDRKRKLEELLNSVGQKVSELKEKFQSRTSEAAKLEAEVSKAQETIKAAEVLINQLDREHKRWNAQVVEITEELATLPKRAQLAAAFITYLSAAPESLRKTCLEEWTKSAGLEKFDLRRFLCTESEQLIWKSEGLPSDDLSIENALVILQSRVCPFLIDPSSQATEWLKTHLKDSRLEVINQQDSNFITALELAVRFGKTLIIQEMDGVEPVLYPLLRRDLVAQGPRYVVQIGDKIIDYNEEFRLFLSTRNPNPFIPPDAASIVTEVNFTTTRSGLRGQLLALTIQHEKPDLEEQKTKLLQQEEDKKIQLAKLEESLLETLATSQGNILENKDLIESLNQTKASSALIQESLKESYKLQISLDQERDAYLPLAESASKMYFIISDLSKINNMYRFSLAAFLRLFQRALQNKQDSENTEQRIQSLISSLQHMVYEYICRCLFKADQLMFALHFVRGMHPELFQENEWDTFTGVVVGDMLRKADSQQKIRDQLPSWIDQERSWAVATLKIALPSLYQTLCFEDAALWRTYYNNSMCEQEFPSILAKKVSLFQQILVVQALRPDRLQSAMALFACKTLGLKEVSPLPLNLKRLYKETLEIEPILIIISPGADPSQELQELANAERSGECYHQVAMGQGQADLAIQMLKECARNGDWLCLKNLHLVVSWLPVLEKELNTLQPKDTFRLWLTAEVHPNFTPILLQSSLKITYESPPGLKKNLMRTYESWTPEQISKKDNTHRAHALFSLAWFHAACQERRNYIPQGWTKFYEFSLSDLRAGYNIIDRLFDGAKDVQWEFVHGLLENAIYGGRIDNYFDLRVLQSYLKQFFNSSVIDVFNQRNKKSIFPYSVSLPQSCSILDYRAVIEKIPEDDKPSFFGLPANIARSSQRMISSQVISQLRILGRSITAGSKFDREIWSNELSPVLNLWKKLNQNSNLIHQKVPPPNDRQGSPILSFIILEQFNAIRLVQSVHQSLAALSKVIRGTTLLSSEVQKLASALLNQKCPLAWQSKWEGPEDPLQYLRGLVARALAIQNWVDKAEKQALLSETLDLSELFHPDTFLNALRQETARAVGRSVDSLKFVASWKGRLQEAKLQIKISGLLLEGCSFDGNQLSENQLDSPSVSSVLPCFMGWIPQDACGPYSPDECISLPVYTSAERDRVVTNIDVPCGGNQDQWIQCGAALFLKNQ

Row | SMILES | Velocity of dynein-2-driven microtubule gliding | IC50 [µM] | Improvement in potency of dynein 2 inhibition by cyclization (compound 6 versus compound 9) (microtubule gliding assay)
1 | N#Cc1c(-c2ccc(Cl)cc2Cl)cn2c1[nH]c(=O)c1ccccc12 [Compound 2, 2-(2,4-dichlorophenyl)-5-oxo-4H-pyrrolo[1,2-a]quinazoline-3-carbonitrile] | 126 ± 17 nm/s |  | 
2 | O=c1[nH]c2cc(-c3ccc(Cl)cc3Cl)nn2c2ccccc12 [Compound 3, 2-(2,4-dichlorophenyl)-4H-pyrazolo[1,5-a]quinazolin-5-one] | comparable to that observed in the presence of ciliobrevin D |  | 
3 | N#Cc1c(-c2ccc(Cl)cc2Cl)nn2c1[nH]c(=O)c1ccccc12 [Compound 4, 2-(2,4-dichlorophenyl)-5-oxo-4H-pyrazolo[1,5-a]quinazoline-3-carbonitrile] | comparable to that observed in the presence of ciliobrevin D |  | 
4 | N#Cc1c(C2(c3ccc(Cl)cc3)CC2)nn2c1[nH]c(=O)c1ccccc12 [Compound 5, 2-[1-(4-chlorophenyl)cyclopropyl]-5-oxo-4H-pyrazolo[1,5-a]quinazoline-3-carbonitrile] | 58 ± 14 nm/s |  | 
5 | N#Cc1c(C2(c3ccc(Cl)cc3)CC2)nn2c1[nH]c(=O)c1cc(C(F)(F)F)ccc12 [Compound 6, 2-(1-(4-chlorophenyl)cyclopropyl)-5-oxo-7-(trifluoromethyl)-4,5-dihydropyrazolo[1,5-a]quinazoline-3-carbonitrile] | 6 ± 2 nm/s | 2.9 ± 0.6 | ~ 6 fold
6 | COc1ccc2c(c1)c(=O)[nH]c1c(C#N)c(C3(c4ccc(Cl)cc4)CC3)nn12 [Compound 7, 2-[1-(4-chlorophenyl)cyclopropyl]-7-methoxy-5-oxo-4H-pyrazolo[1,5-a]quinazoline-3-carbonitrile] | 128 ± 21 nm/s |  | 
7 | N#C/C(C(=O)c1ccc(Cl)cc1Cl)=C1\NC(=O)c2cc(C(F)(F)F)ccc2N1 [Compound 9, (E)-3-(2,4-dichlorophenyl)-3-oxo-2-(4-oxo-6-(trifluoromethyl)-3,4-dihydroquinazolin-2(1H)-ylidene)propanenitrile] |  | 17.7 | 
